# Results taken from patent publication US6362217B1, “Taxane anticancer agents” (Bristol-Myers Squibb Company, priority 2000, dated 2002).
# Marks after values point to notes of the source that are not given here.
# Assays:
# [1] = tested on: HCT-116 human colon carcinoma cells; experiment: Cytotoxicity, MTS assay; assay type: cell-based; details: MTS procedure, 72 hours incubation
# Procedure: (§1) Cytoxicity was assessed in HCT-116 human colon carcinoma cells by either using an XTT or MTS procedure.
# Cytoxicity was assessed in HCT-116 human colon carcinoma cells by MTS (3-(4,5-dimethylthiazol-2-yl)-5-(3-carboxymethoxyphenyl)-2-(4-sulphenyl)-2H-tetrazolium, inner salt) assay as reported in T. L. Riss, et. al., “Comparison of MTT, XTT, and a novel tetrazolium compound MTS for in vitro proliferation and chemosensitivity assays.” Mol. Biol. Cell 3 (Suppl.):184a, 1992. Cells were plated at 4,000 cell/well in 96 well microtiter plates and 24 hours later drugs were added and serial diluted. The cells were incubated at 37° form 72 hours at which time the tetrazolium dye, MTS at 333 μg/ml (final concentration), in combination with the electron coupling agent phenazine methosulfate at 25 μM (final concentration) was added. A dehydrogenase enzyme in live cells reduces the MTS to a form that absorbs light at […] which can be quantitated spectrophotometrically. The greater the absorbance the greater the number of live cells. The results are expressed as an IC50, which is the drug concentration required to inhibit cell proliferation (i.e. absorbance at 450 nm) to 50% of that of untreated control cells. The IC50 values for compounds evaluated in this assay are evaluated in Table I.
# [2] = tested on: murine lung carcinoma, M109; experiment: In vivo antitumor testing, sc M109 tumor model; parameters: species or system mice; details: for iv activity compared to concomitantly evaluated iv paclitaxel: scM109 tumors
# Text: (§2) Animals. Conventional or athymic (“nude”) mice, and nude rats, were implanted subcutaneously (sc) with tumor brei or fragments. Murine tumor were implanted in conventional mice, human tumors were implanted into nude mice or rats.
# (§3) Tumors. A variety of tumors have been utilized but not all of them have necessarily been used to evaluate each and every taxane. The tumors utilized most often included the murine lung carcinoma, M109, the murine mammary carcinoma, MAM 16/C, the human ovarian carcinoma. A2780, the human colon tumors, HCT-116 and HCT-116/pk.
# (§4) Treatments are initiated at differing times post-implantation depending upon the desired stringency of the test system; in general, the greater the delay post-tumor implantation, the larger the tumors at the start of therapy. Typically, treatments were begun in the M109 tumor model on Day 4 post-tumor implant, Day 7 in the MAM 16/C tumor model, and when tumors were between 100 and 500 mg in size (typically Day 7 to Day 12 post-tumor implant) for each of the human tumor xenograft models (e.g., A2780, HCT-116 and HCT-116/pk). Group sizes were typically 8 per treatment and control groups in mouse experiments and 7 per treatment and control groups in rat experiments.
# Treatments for taxanes administered orally (po) were done by gavage using a vehicle consisting of 10% ethanol +10% Cremophor EL+80% water. The volume of liquid administered was 0.01 ml per gram of body weight for mice, and 0.005 ml per gram of body weight for rats. A typical mouse experiment would involve the evaluation of each test compound at three different dose levels, but only one to three test groups per compound were included in rat experiments. In every experiment, intravenously (iv) administered paclitaxel was included as a reference drug.
# (§5) Paclitaxel was administered iv on treatment schedules and doses established from experience as being optimal, or near optimal, for the particular tumor, tumor staging, and host animal under study. It was given once daily, for five consecutive daily treatments (i.e., qd×5), when evaluated in the M109 and MAM 16/C tumor models, once daily every other day for five treatments (i.e., q2d×5) when administered to mice bearing human tumors, and once daily every other or every fourth day for five or three treatments, respectively (i.e., q2d×5 or q4d×3), to rats.
# (§6) Orally administered taxanes were evaluated on the same treatment schedules just described for iv administered paclitaxel, plus other treatment schedules such as daily for nine days, or every eight days for two treatments.
# Antitumor activity was assessed by determining the size of tumors in all treated and control experimental animals over time. Each animal was individually identified and the growth of the tumor implanted into each animal was measured once or twice weekly using a calipers. The difference in median time for tumors in treated (T) and control (C) groups to reach a predetermined size (e.g., 500 or 1,000 milligrams) was calculated, and assessments of absolute and relative antitumor effects (e.g., between compounds) were made on the basis of the delays in time to reach predetermined tumor target sizes. Animals with tumors of 35 mg or less at the termination of an experiment were termed “cures”. Experiments were terminated typically after a period of time had elapsed post-treatment that was at least 10 times the tumor volume doubling time (TVDT) of the median tumor growth in control animals as assessed prior to their reaching the predetermined tumor target size in each experiment. Activity in a test group was defined as having caused a delay in tumor growth (median time to reach tumor target size) relative to the concomitant control tumor growth (i.e. T-C) of 3.32 times the TVDT. Activity was expressed in log cell kill which was equal to (T-C)/(TVDT×3.32). Toxicity was determined by measuring the average body weight of all animals in an experiment prior to, and soon after, any treatments in the experiment. […]
# [3] = tested on: human ovarian carcinoma A2780; experiment: In vivo antitumor testing, A2780 xenograft model; parameters: species or system nude mice
# Text: as §2, §3, §4
# Treatments for taxanes administered orally (po) were done by gavage using a vehicle consisting of 10% ethanol +10% Cremophor EL+80% water. […]
# as §5, §6
# Antitumor activity was assessed by determining the size of tumors in all treated and control experimental animals over time. Each animal was individually identified and the growth of the tumor implanted into each animal was measured once or twice weekly using a calipers. The difference in median time for tumors in treated (T) and control (C) groups to reach a predetermined size (e.g., 500 or 1,000 milligrams) was calculated, and assessments of absolute and relative antitumor effects (e.g., between compounds) were made on the basis of the delays in time to reach predetermined tumor target sizes. […]
# [4] = tested on: HCT-116 human colon carcinoma cells; experiment: Cytotoxicity, XTT assay; assay type: cell-based; details: XTT procedure, 72 hours incubation
# Procedure: as §1
# Cytotoxicity was assessed in HCT-116 human colon carcinoma cells by XTT (2,3-bis(2-methoxy-4-nitro-5-sulfpphenyl)-5-[(phenylamino)carbonyl]2H-tetrazolium hydroxide) assay as reported in D. A. Scudiero, et al., “Evaluation of soluble tetrazolium/formazan assay for cell growth and drug sensitivity in culture using human and other tumor cell lines,” Cancer Res. 48:4827-4833, 1988. Cells were plated at 4000 cells/well in 96 well microtiter plates and 24 hours later drugs were added and serial diluted. The cells were incubated at 37° C. for 72 hours at which time the tetrazolium dye, XTT, was added. A dehydrogenase enzyme in live cells reduces the XTT to a form that absorbs light at 450 nm which can be quantitated spectrophotometrically. The greater the absorbance, the greater the number of live cells. The results are expressed as an IC50, which is the drug concentration required to inhibit cell proliferation (i.e., absorbance at 450 nm) to 50% of that of untreated control cells.
# [5] = human or animal models, prior art; cited from earlier work
compound,measurement,setting,value
3′N-(2-furoyl)-7-deoxy paclitaxel [Ib],IC50,[1],0.85 nM
same,IV Activity in LCK,"[2]; iv, 20 mg/kg per injection, M109",0.7 LCK
same,iv activity compared to concomitantly evaluated iv paclitaxel,[2]; iv,equiactive to paclitaxel
same,oral activity,"[2]; oral, M109 model",active orally
same,PO Activity in LCK,"[2]; po, 40 mg/kg per administration, M109",0.7 LCK
same,oral activity compared to optimal iv paclitaxel,"[3]; oral, A2780 model",equallyactive if not better
same,PO Activity in LCK,"[3]; po, 85 mg/kg per administration, A2780",>7 LCK
same,Cures (mice cured / tested),"[3]; po, 85 mg/kg per administration, A2780, cure = tumor of 35 mg or less at termination",(1/8)**
7-deoxy-3′-(4-hydroxyphenyl)-3′N-t-butoxycarbonyl paclitaxel [Compound Ia],IC50,[1],4.3 nM
same,IV Activity in LCK,"[2]; iv, 13 mg/kg per injection, M109, log cell kill = (T-C)/(TVDT×3.32)",1.4 LCK
same,iv activity compared to concomitantly evaluated iv paclitaxel,[2]; iv,surprising activity
10-(2-amino)benzoyl-7-deoxy paclitaxel [Ih],IC50,[4],102 nM
"CC(=O)OC12COC1CCC1(C)C(=O)C(OC(=O)N3CCOCC3)C3=C(C)C(OC(=O)C(O)C(NC(=O)c4ccccc4)c4ccccc4)CC(O)(C(OC(=O)c4ccccc4)C12)C3(C)C (stereo not drawn) [Ic, 10-Morpholinoyl-7-deoxy paclitaxel]",IC50,[4],1.49 nM
"CCCCCCCC(=O)OC1C(=O)C2(C)CCC3OCC3(OC(C)=O)C2C(OC(=O)c2ccccc2)C2(O)CC(OC(=O)C(O)C(NC(=O)c3ccccc3)c3ccccc3)C(C)=C1C2(C)C (stereo not drawn) [Id, 10-Octanoyl-7-deoxy paclitaxel]",IC50,[4],98.2 nM
"CC(=O)OC12COC1CCC1(C)C(=O)C(OC(=O)COc3ccccc3)C3=C(C)C(OC(=O)C(O)C(NC(=O)c4ccccc4)c4ccccc4)CC(O)(C(OC(=O)c4ccccc4)C12)C3(C)C (stereo not drawn) [Ie, 10-Phenoxyacetyl-7-deoxy paclitaxel]",IC50,[4],8.09 nM
"CC(=O)OC12COC1CCC1(C)C(=O)C(OC(=O)c3ccccc3[N+](=O)[O-])C3=C(C)C(OC(=O)C(O)C(NC(=O)c4ccccc4)c4ccccc4)CC(O)(C(OC(=O)c4ccccc4)C12)C3(C)C (stereo not drawn) [If, 10-(2-Nitro)benzoyl-7-deoxy paclitaxel]",IC50,[4],13.3 nM
"CC(=O)OC12COC1CCC1(C)C(=O)C(OC(=O)C=Cc3ccccc3)C3=C(C)C(OC(=O)C(O)C(NC(=O)c4ccccc4)c4ccccc4)CC(O)(C(OC(=O)c4ccccc4)C12)C3(C)C (stereo not drawn) [Ig, 10-Cinnamoyl-7-deoxy paclitaxel]",IC50,[4],28.4 nM
"CC(=O)O[C@H]1C(=O)[C@@]2(C)[C@H]([C@H](OC(=O)c3ccccc3)[C@]3(O)C[C@H](OC(=O)[C@H](O)[C@@H](NC(=O)c4ccccc4)c4ccccc4)C(C)=C1C3(C)C)[C@]1(OC(C)=O)CO[C@@H]1C[C@@H]2O [Paclitaxel, paclitaxel, reference compound]",oral activity,[5],no oral activity
same,Optimal Activity of iv Paclitaxel,"[2]; iv, optimal dose and schedule (qd×5), M109, concomitantly evaluated",0.7 LCK
same,Optimal Activity of iv Paclitaxel,"[3]; iv, optimal dose and schedule (q2d×5), A2780, concomitantly evaluated",5.9 LCK
"CC(=O)O[C@@]12CO[C@@H]1C[C@H](O)[C@@]1(C)C(=O)[C@H](O)C3=C(C)[C@@H](OC(=O)[C@H](O)[C@@H](NC(=O)OC(C)(C)C)c4ccccc4)C[C@@](O)([C@@H](OC(=O)c4ccccc4)[C@H]21)C3(C)C [TAXOTERE®, docetaxel]",oral activity,[5],no oral activity
